# Assays:
# [1] = Drug uptake in anesthetized cynomolgus monkey brain occipital lobe after 187.5 mins postinjection; format: ADME, organism-based, Macaca fascicularis; settings: in vivo, 3.125 h
# [2] = Drug uptake in anesthetized cynomolgus monkey brain frontal lobe after 202.5 mins postinjection; format: ADME, organism-based, Macaca fascicularis; settings: in vivo, 3.375 h
# [3] = Drug uptake in anesthetized cynomolgus monkey brain frontal lobe after 207.5 mins postinjection; format: ADME, organism-based, Macaca fascicularis; settings: in vivo
# [4] = Drug uptake in anesthetized cynomolgus monkey brain cerebellum after 187.5 mins postinjection; format: ADME, organism-based, Macaca fascicularis; settings: in vivo, 3.125 h
# [5] = Ratio of drug uptake in pons to cerebellum in anesthetized cynomolgus monkey after 165 mins postinjection; format: ADME, organism-based, Macaca fascicularis; settings: in vivo, 2.75 h
# [6] = Ratio of drug uptake in medulla to cerebellum in anesthetized cynomolgus monkey after 235 mins postinjection; format: ADME, organism-based, Macaca fascicularis; settings: in vivo
# [7] = Drug uptake in awake rhesus monkey occipital lobe after 55 mins postinjection; format: ADME, organism-based, Macaca mulatta; settings: in vivo
# [8] = Ratio of drug uptake in pons to cerebellum in awake rhesus monkey after 0.3 mins postinjection; format: ADME, organism-based, Macaca mulatta; settings: in vivo, 0.005 h
# [9] = Ratio of drug uptake in pons to cerebellum in awake rhesus monkey after 2.3 mins postinjection; format: ADME, organism-based, Macaca mulatta; settings: in vivo, 138 s
# [10] = Ratio of drug uptake in pons to cerebellum in awake rhesus monkey after 2.8 mins postinjection; format: ADME, organism-based, Macaca mulatta; settings: in vivo, 168 s
# [11] = Ratio of drug uptake in occipital lobe to cerebellum in awake rhesus monkey after 0.8 mins postinjection; format: ADME, organism-based, Macaca mulatta; settings: in vivo, 48 s
# [12] = Drug uptake in awake rhesus monkey occipital lobe after 115 mins postinjection; format: ADME, organism-based, Macaca mulatta; settings: in vivo
# [13] = Ratio of drug uptake in occipital lobe to cerebellum in awake rhesus monkey after 4.5 mins postinjection; format: ADME, organism-based, Macaca mulatta; settings: in vivo, 0.075 h
# [14] = Drug uptake in awake rhesus monkey occipital lobe after 35 mins postinjection; format: ADME, organism-based, Macaca mulatta; settings: in vivo
# [15] = target: Sodium-dependent serotonin transporter (Homo sapiens, UniProt P31645); test: Displacement of [3H](R,S)citalopram.HBr from human SERT transfected in human HEK293 cells; format: cell-based
# Chain of Sodium-dependent serotonin transporter (P31645 whole entry): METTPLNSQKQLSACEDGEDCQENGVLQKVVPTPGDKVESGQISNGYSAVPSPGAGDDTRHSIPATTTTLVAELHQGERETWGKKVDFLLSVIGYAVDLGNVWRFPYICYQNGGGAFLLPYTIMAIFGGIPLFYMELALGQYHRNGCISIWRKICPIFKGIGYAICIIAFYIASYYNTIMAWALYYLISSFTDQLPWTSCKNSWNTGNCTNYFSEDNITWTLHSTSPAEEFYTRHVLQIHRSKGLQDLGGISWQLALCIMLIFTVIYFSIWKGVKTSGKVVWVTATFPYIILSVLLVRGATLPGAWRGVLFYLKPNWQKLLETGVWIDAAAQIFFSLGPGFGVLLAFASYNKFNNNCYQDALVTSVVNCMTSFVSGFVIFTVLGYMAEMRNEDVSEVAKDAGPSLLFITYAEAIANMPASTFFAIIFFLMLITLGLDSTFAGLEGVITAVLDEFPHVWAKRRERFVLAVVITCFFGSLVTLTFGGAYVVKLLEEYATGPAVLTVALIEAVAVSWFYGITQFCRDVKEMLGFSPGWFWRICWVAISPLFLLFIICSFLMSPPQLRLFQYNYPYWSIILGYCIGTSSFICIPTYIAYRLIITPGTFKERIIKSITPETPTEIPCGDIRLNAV
# [16] = Ratio of drug uptake in thalamus to cerebellum in awake rhesus monkey after 115 mins postinjection; format: ADME, organism-based, Macaca mulatta; settings: in vivo
# [17] = Ratio of drug uptake in frontal lobe to cerebellum in awake rhesus monkey after 4.5 mins postinjection; format: ADME, organism-based, Macaca mulatta; settings: in vivo, 0.075 h
# [18] = Drug uptake in awake rhesus monkey occipital lobe after 4.5 mins postinjection; format: ADME, organism-based, Macaca mulatta; settings: in vivo, 0.075 h
# [19] = target: Sodium-dependent noradrenaline transporter (Homo sapiens, UniProt P23975); test: Displacement of [3H]nisoxetine from human NET transfected in human HEK293 cells; format: cell-based
# Chain of Sodium-dependent noradrenaline transporter (P23975 whole entry): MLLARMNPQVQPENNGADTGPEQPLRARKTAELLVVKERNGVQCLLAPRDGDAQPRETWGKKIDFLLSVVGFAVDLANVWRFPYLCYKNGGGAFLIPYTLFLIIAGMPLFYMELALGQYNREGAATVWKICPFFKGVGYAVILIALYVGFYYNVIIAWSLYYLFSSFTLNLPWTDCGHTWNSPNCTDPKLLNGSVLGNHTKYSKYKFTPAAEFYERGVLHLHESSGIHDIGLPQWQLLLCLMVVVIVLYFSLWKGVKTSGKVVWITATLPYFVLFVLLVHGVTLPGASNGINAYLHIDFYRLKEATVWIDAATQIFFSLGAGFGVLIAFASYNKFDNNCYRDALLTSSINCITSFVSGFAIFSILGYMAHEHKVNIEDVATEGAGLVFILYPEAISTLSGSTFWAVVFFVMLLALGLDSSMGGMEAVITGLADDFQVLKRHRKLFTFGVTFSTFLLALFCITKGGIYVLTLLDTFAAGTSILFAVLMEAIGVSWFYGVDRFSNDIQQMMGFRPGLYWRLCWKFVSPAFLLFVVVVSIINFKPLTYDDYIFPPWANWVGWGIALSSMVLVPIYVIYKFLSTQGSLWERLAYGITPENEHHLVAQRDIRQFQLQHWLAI
# [20] = Ratio of drug uptake in occipital lobe to cerebellum in awake rhesus monkey after 65 mins postinjection; format: ADME, organism-based, Macaca mulatta; settings: in vivo
# [21] = Ratio of drug uptake in midbrain to cerebellum in awake rhesus monkey after 115 mins postinjection; format: ADME, organism-based, Macaca mulatta; settings: in vivo
# [22] = Drug uptake in awake rhesus monkey caudate after 2.8 mins postinjection; format: ADME, organism-based, Macaca mulatta, Caudate nucleus; settings: in vivo, 168 s
# [23] = Drug uptake in awake rhesus monkey putamen after 0.3 mins postinjection; format: ADME, organism-based, Macaca mulatta; settings: in vivo, 0.005 h
# [24] = Drug uptake in awake rhesus monkey putamen after 1.8 mins postinjection; format: ADME, organism-based, Macaca mulatta; settings: in vivo, 0.03 h
# [25] = Drug uptake in awake rhesus monkey thalamus after 1.8 mins postinjection; format: ADME, organism-based, Macaca mulatta; settings: in vivo, 0.03 h
# [26] = Drug uptake in awake rhesus monkey thalamus after 2.8 mins postinjection; format: ADME, organism-based, Macaca mulatta; settings: in vivo, 168 s
# [27] = Drug uptake in awake rhesus monkey midbrain after 0.3 mins postinjection; format: ADME, organism-based, Macaca mulatta; settings: in vivo, 0.005 h
# [28] = Drug uptake in awake rhesus monkey midbrain after 1.3 mins postinjection; format: ADME, organism-based, Macaca mulatta; settings: in vivo, 78 s
# [29] = Drug uptake in awake rhesus monkey midbrain after 1.8 mins postinjection; format: ADME, organism-based, Macaca mulatta; settings: in vivo, 0.03 h
# [30] = Drug uptake in awake rhesus monkey medulla after 0.8 mins postinjection; format: ADME, organism-based, Macaca mulatta, Medulla of organ; settings: in vivo, 48 s
# [31] = Drug uptake in awake rhesus monkey medulla after 2.3 mins postinjection; format: ADME, organism-based, Macaca mulatta, Medulla of organ; settings: in vivo, 138 s
# [32] = Drug uptake in awake rhesus monkey cerebellum after 1.8 mins postinjection; format: ADME, organism-based, Macaca mulatta; settings: in vivo, 0.03 h
# [33] = Drug uptake in awake rhesus monkey frontal lobe after 1.3 mins postinjection; format: ADME, organism-based, Macaca mulatta; settings: in vivo, 78 s
# [34] = Drug uptake in awake rhesus monkey frontal lobe after 2.8 mins postinjection; format: ADME, organism-based, Macaca mulatta; settings: in vivo, 168 s
# [35] = Drug uptake in awake rhesus monkey occipital lobe after 2.3 mins postinjection; format: ADME, organism-based, Macaca mulatta; settings: in vivo, 138 s
# [36] = Drug uptake in awake rhesus monkey occipital lobe after 2.8 mins postinjection; format: ADME, organism-based, Macaca mulatta; settings: in vivo, 168 s
# [37] = Ratio of drug uptake in caudate to cerebellum in awake rhesus monkey after 0.8 mins postinjection; format: ADME, organism-based, Macaca mulatta; settings: in vivo, 48 s
# [38] = Ratio of drug uptake in caudate to cerebellum in awake rhesus monkey after 2.8 mins postinjection; format: ADME, organism-based, Macaca mulatta; settings: in vivo, 168 s
# [39] = Ratio of drug uptake in putamen to cerebellum in awake rhesus monkey after 0.8 mins postinjection; format: ADME, organism-based, Macaca mulatta; settings: in vivo, 48 s
# [40] = Metabolic stability in anesthetized cynomolgus monkey plasma after 180 mins postinjection; format: ADME, organism-based, Macaca fascicularis; settings: read-out: Stability
# [41] = Protein binding in anesthetized cynomolgus monkey plasma after 5 mins postinjection; format: ADME, organism-based, Macaca fascicularis; settings: read-out: PPB (converted)
# [42] = Protein binding in anesthetized cynomolgus monkey plasma after 15 mins postinjection; format: ADME, organism-based, Macaca fascicularis; settings: read-out: PPB (converted)
# [43] = Protein binding in anesthetized cynomolgus monkey plasma after 30 mins postinjection; format: ADME, organism-based, Macaca fascicularis; settings: read-out: PPB (converted)
# [44] = Protein binding in anesthetized cynomolgus monkey plasma after 60 mins postinjection; format: ADME, organism-based, Macaca fascicularis; settings: read-out: PPB (converted)
# [45] = Protein binding in anesthetized cynomolgus monkey plasma after 120 mins postinjection; format: ADME, organism-based, Macaca fascicularis; settings: read-out: PPB (converted)
# [46] = Drug uptake in awake rhesus monkey brain medulla after 0.25 mins postinjection; format: ADME, organism-based, Macaca mulatta; settings: in vivo, 15 s
# [47] = Drug uptake in awake rhesus monkey brain medulla after 1.25 mins postinjection; format: ADME, organism-based, Macaca mulatta; settings: in vivo, 75 s
# [48] = Drug uptake in awake rhesus monkey brain pons after 2.75 mins postinjection; format: ADME, organism-based, Macaca mulatta; settings: in vivo, 165 s
# [49] = Drug uptake in awake rhesus monkey brain pons after 4.5 mins postinjection; format: ADME, organism-based, Macaca mulatta; settings: in vivo, 0.075 h
# [50] = Ratio of drug uptake in caudate to cerebellum in awake rhesus monkey after 13.5 mins postinjection; format: ADME, organism-based, Macaca mulatta; settings: in vivo, 0.225 h
# [51] = Ratio of drug uptake in caudate to cerebellum in awake rhesus monkey after 17.5 mins postinjection; format: ADME, organism-based, Macaca mulatta; settings: in vivo
# [52] = Ratio of drug uptake in caudate to cerebellum in awake rhesus monkey after 105 mins postinjection; format: ADME, organism-based, Macaca mulatta; settings: in vivo, 1.75 h
# [53] = Ratio of drug uptake in thalamus to cerebellum in awake rhesus monkey after 10.5 mins postinjection; format: ADME, organism-based, Macaca mulatta; settings: in vivo, 0.175 h
# [54] = Ratio of drug uptake in thalamus to cerebellum in awake rhesus monkey after 35 mins postinjection; format: ADME, organism-based, Macaca mulatta; settings: in vivo
# [55] = Ratio of drug uptake in thalamus to cerebellum in awake rhesus monkey after 75 mins postinjection; format: ADME, organism-based, Macaca mulatta; settings: in vivo, 1.25 h
# [56] = Drug uptake in awake rhesus monkey brain putamen after 115 mins postinjection; format: ADME, organism-based, Macaca mulatta; settings: in vivo
# [57] = Drug uptake in awake rhesus monkey brain caudate after 2.25 mins postinjection; format: ADME, organism-based, Macaca mulatta, Caudate nucleus; settings: in vivo, 135 s
# [58] = Drug uptake in awake rhesus monkey brain thalamus after 1.25 mins postinjection; format: ADME, organism-based, Macaca mulatta; settings: in vivo, 75 s
# [59] = Ratio of drug uptake in medulla to cerebellum in awake rhesus monkey after 25 mins postinjection; format: ADME, organism-based, Macaca mulatta; settings: in vivo
# [60] = Ratio of drug uptake in medulla to cerebellum in awake rhesus monkey after 85 mins postinjection; format: ADME, organism-based, Macaca mulatta; settings: in vivo
# [61] = Ratio of drug uptake in frontal lobe to cerebellum in awake rhesus monkey after 45 mins postinjection; format: ADME, organism-based, Macaca mulatta; settings: in vivo, 0.75 h
# [62] = Ratio of drug uptake in frontal lobe to cerebellum in awake rhesus monkey after 55 mins postinjection; format: ADME, organism-based, Macaca mulatta; settings: in vivo
# [63] = Ratio of drug uptake in frontal lobe to cerebellum in awake rhesus monkey after 75 mins postinjection; format: ADME, organism-based, Macaca mulatta; settings: in vivo, 1.25 h
# [64] = Ratio of drug uptake in midbrain to cerebellum in awake rhesus monkey after 35 mins postinjection; format: ADME, organism-based, Macaca mulatta; settings: in vivo
compound,measurement,setting,value
O=C(OCCC[18F])C1C2CCC(CC1c1cccc(/C=C\Br)c1)N2 (centres undefined),Drug uptake,[1],3.05
same,Drug uptake,[2],2.23
same,Drug uptake,[3],2.03
same,Drug uptake,[4],2.35
O=C(OCC[18F])C1C2CCC(CC1c1ccc(/C=C\I)cc1)N2 (centres undefined),Ratio,[5],2.6
same,Ratio,[6],3.3
same,Drug uptake,[7],2.73
same,Ratio,[8],0
same,Ratio,[9],0.9
same,Ratio,[10],1
same,Ratio,[11],1.9
same,Drug uptake,[12],2.57
same,Ratio,[13],0.9
same,Drug uptake,[14],2.65
same,Ki,[15],0.08 nM
same,Ratio,[16],2.6
same,Ratio,[17],0.9
same,Drug uptake,[18],0.96
same,Ki,[19],28 nM
same,Ratio,[20],1.6
same,Ratio,[21],2.5
same,Drug uptake,[22],0.53
same,Drug uptake,[23],0.05
same,Drug uptake,[24],0.31
same,Drug uptake,[25],0.32
same,Drug uptake,[26],0.65
same,Drug uptake,[27],0.08
same,Drug uptake,[28],0.05
same,Drug uptake,[29],0.25
same,Drug uptake,[30],0
same,Drug uptake,[31],0.68
same,Drug uptake,[32],0.27
same,Drug uptake,[33],0.05
same,Drug uptake,[34],0.47
same,Drug uptake,[35],0.36
same,Drug uptake,[36],0.53
same,Ratio,[37],0
same,Ratio,[38],1
same,Ratio,[39],7.2
O=C(OCC[18F])C1C2CCC(CC1c1cccc(/C=C\I)c1)N2 (centres undefined),remaining at 3 h,[40],13%
same,fraction unbound at 5 min,[41],0.925
same,fraction unbound at 0.25 h,[42],0.932
same,fraction unbound at 0.5 h,[43],0.916
same,fraction unbound at 1 h,[44],0.915
same,fraction unbound at 2 h,[45],0.934
same,Drug uptake,[46],0
same,Drug uptake,[47],0.01
same,Drug uptake,[48],0.02
same,Drug uptake,[49],0.05
same,Ratio,[50],1.1
same,Ratio,[51],1.2
same,Ratio,[52],1.4
same,Ratio,[53],1.4
same,Ratio,[54],1.4
same,Ratio,[55],1.5
same,Drug uptake,[56],0.13
same,Drug uptake,[57],0.03
same,Drug uptake,[58],0.01
same,Ratio,[59],1
same,Ratio,[60],1.1
same,Ratio,[61],1
same,Ratio,[62],1
same,Ratio,[63],1.1
same,Ratio,[64],1.3

# From ChEMBL document CHEMBL1151757, “Synthesis, radiosynthesis, and biological evaluation of fluorine-18-labeled 2beta-carbo(fluoroalkoxy)-3beta-(3'-((Z)-2-haloethenyl)phenyl)nortropanes: candidate radioligands for in vivo imaging of the serotonin transporter with positron emission tomography” (J Med Chem, 2008)
